Measured values reported in US6974671B1, “Methods for indentifying compounds that modulate gluconeogenesis through the binding of CREB to the PGC-1 promoter” (Salk Institute for Biological Studies, priority 2001, dated 2005).

Assays:
[1] = test system: PGC-1 promoter; experiment: Transient assay of HepG2 cells with PGC-1 luciferase reporter; type: cell-based, human
From the text: (§1) Plasmids. Expression plasmids pZEO-ACREB^22 and pcDNA3-PGC-1^24 have been described previously. Liver specific A-CREB transgene was constructed by inserting A-CREB cDNA into a liver specific albumin promoter/enhancer plasmid^5. To construct luciferase expression plasmids −490PEPCKLuc and −355PEPCKLuc BamHI/BglII fragments of the PEPCK promoter region containing 490 or 355 bp of the mouse PEPCK 5′-flanking region, respectively, were cloned into the pGL3 basic luciferase reporter vector (Promega, St. Luis Obispo). PGC-1 reporter mPGCLuc was constructed by inserting a […] fragment of the mouse PGC-1 promoter containing 170 bp of the 5′-flanking region and 68 bp of Exon 1 into the pGL3 vector.
(§2) Cell culture and transient transfection assays. Human hepatoma HepG2 cells were transfected using the Lipofectamine 2000 reagent (GIBCO BRL) according to manufacturers instructions (500 ng of indicator plasmid/well). Where indicated, expression plasmids encoding A-CREB (pZeo-ACREB)^22 or PGC-1 (pcDNA3-PGC-1)^24 were cotransfected (50 ng or 800 ng plasmid/well, respectively). Cotransfections were performed with a constant DNA amount by adding the empty pcDNA3 vector (Invitrogen). Cells were treated with Forskolin (10 μM) and/or Dexamethasone (100 nM) or insulin (10 nM) for 14 h. […]

[2] = test system: PEPCK promoter; experiment: Transient assay of HepG2 cells with PEPCK luciferase reporter; type: cell-based, human; conditions: HepG2, PEPCK reporter plasmid, cAMP agonist
From the text: as §1, §2

Compound | induction of PGC-1 promoter activity ([1]; HepG2, PGC-1 luciferase reporter (-170 to +68), forskolin 10 μM) | stimulation of PEPCK promoter activity [2] | effect on PGC-1 reporter activity ([1]; HepG2, insulin 10 nM)
C=C[C@@]1(C)CC(=O)[C@]2(O)[C@@]3(C)[C@@H](O)CCC(C)(C)[C@@H]3[C@H](O)[C@H](OC(C)=O)[C@@]2(C)O1 [cAMP agonist, Forskolin] | 3–4 fold | 3–4 fold | –
insulin | – | – | blocked
